Values of other authors in US20040013710A1, “Hydrolyzable tannin extracts from plants effective at inhibiting bacterial adherence to surfaces” (priority 2003, published 2004).

Tested on: type 1 E. coli

Structure (SMILES): O=C(CO)[C@@H](O)[C@H](O)[C@H](O)CO [fructose]
- inhibition of Type I adherence: inhibited
